Reference: patent US20260007717A1, “ANTIMICROBIAL PEPTIDE COMPOUNDS AND METHODS OF USE” (priority 2022, published 2026)
Converted amounts (≈) assume the structure as drawn. Read-outs that look alike come from different tables or passages of the source. Positions of bridges follow the written chain, without caps; N, C: chain ends. Non-standard residues stand in square brackets, D forms with d. Residues, ends and D or L forms follow the SMILES beside them. *: point of attachment. Picolinoyl = O=C(c1ccccn1)*; Aib = CC(C)(N)C(=O)O

Key:
[1] = test system: P. gingivalis; assay type: cell-based
Experimental: (§1) Briefly, P. gingivalis is grown under anaerobic conditions to mid-log phase as per Dominy et al. […] The microtiter plate method outlined by Jansen (ibid) was used to measure MICs. Compounds and bacteria are added to wells of a microtiter plate and grown anaerobically (P. gingivalis) or with CO2 (L. salivarius) for 24 to 72 hours. Growth is measured with light scattering at 592 nm on a plate reader and absorbance plotted against μg/ml of drug in each well.

[2] = test system: L. salivarius; assay type: cell-based
Experimental: as §1

[3] = test system: E. coli; assay type: cell-based
[4] = test system: A. baumannii; conditions: cited from earlier work

| MIC P. gingivalis [1] [µg/mL] | MIC L. salivarius [2] [µg/mL] | MIC E. coli [3] [µg/mL] | MIC P. gingivalis ([1]; anaerobic BHI broth) [µg/mL] | MIC L. salivarius ([2]; 5% CO2, BHI broth) [µg/mL] | Compound | LC99.9 ([4]; 50% pooled plasma) [UM] | LC99.9 ([4]; PBS) [µM] |
| --- | --- | --- | --- | --- | --- | --- | --- |
| 2 to 32 | 8 (≈ 5.44 µM) | 32 (≈ 21.7 µM) |  |  | CC(C)C[C@H](NC(=O)[C@H](CC(C)C)NC(=O)[C@H](CCCNC(=N)N)NC(=O)[C@H](CCCCN)NC(=O)C(C)(C)NC(=O)[C@H](CC(C)C)NC(=O)[C@H](CCCCN)NC(=O)[C@H](CCCNC(=N)N)NC(=O)[C@H](CC(C)C)NC(=O)C(C)(C)NC(=O)[C@H](CO)NC(=O)[C@H](C)NC(=O)c1ccccn1)C(N)=O [SEQ ID NO: 2, Picolinyl-AS-aib-LRKL-aib-KRLL-amide] (Picolinoyl-AS[Aib]LRKL[Aib]KRLL-NH2) |  |  |
|  |  |  | 2 (≈ 1.26 µM) |  | CC(C)C[C@@H]1NC(=O)[C@H](CC(C)C)NC(=O)[C@H](CCCNC(=N)N)NC(=O)[C@H](CCCCN)NC(=O)C(C)(C)NC(=O)[C@H](CC(C)C)NC(=O)[C@H](CCCCN)NC(=O)[C@H](CCCNC(=N)N)NC(=O)[C@H](CC(C)C)NC(=O)[C@@H](NC(=O)[C@H](CO)NC(=O)[C@H](C)NC(=O)c2ccccn2)CSSC[C@@H](C(N)=O)NC1=O [SEQ ID NO: 3, Picolinyl-AS-C-LRKL-aib-KRLL-C-amide] (Picolinoyl-ASCLRKL[Aib]KRLLC-NH2; disulfide 3-13) |  |  |
| 32 (≈ 22.7 µM) | 8 (≈ 5.68 µM) | 8 (≈ 5.68 µM) |  |  | CC(=O)N[C@@H](CC(C)C)C(=O)N[C@@H](CC(C)C)C(=O)N[C@@H](CCCNC(=N)N)C(=O)N[C@@H](CCCCN)C(=O)NC(C)(C)C(=O)N[C@@H](CC(C)C)C(=O)N[C@@H](CCCCN)C(=O)N[C@@H](CCCNC(=N)N)C(=O)N[C@@H](CC(C)C)C(=O)NC(C)(C)C(=O)N[C@@H](CO)C(=O)N[C@@H](C)C(N)=O [SEQ ID NO: 4, Acetyl-LLRK-aib-LKRL-aib-SA-CONH2] (Ac-LLRK[Aib]LKRL[Aib]SA-NH2) |  |  |
| 16 (≈ 11.6 µM) |  | 16 (≈ 11.6 µM) |  |  | CC(=O)N[C@H](CC(C)C)C(=O)N[C@H](CC(C)C)C(=O)N[C@H](CCCNC(=N)N)C(=O)N[C@H](CCCCN)C(=O)NC(C)(C)C(=O)N[C@H](CC(C)C)C(=O)N[C@H](CCCCN)C(=O)N[C@H](CCCCN)C(=O)N[C@H](CC(C)C)C(=O)NC(C)(C)C(=O)N[C@H](CO)C(=O)N[C@H](C)C(N)=O [SEQ ID NO: 5, Acetyl-llrk-Aib-lkkl-Aib-sa-amide] (Ac-[dL][dL][dR][dK][Aib][dL][dK][dK][dL][Aib][dS][dA]-NH2) |  |  |
| 8 (≈ 5.68 µM) | 8 (≈ 5.68 µM) | 8 (≈ 5.68 µM) |  |  | CC(=O)N[C@H](C)C(=O)N[C@H](CO)C(=O)NC(C)(C)C(=O)N[C@H](CC(C)C)C(=O)N[C@H](CCCNC(=N)N)C(=O)N[C@H](CCCCN)C(=O)N[C@H](CC(C)C)C(=O)NC(C)(C)C(=O)N[C@H](CCCCN)C(=O)N[C@H](CCCNC(=N)N)C(=O)N[C@H](CC(C)C)C(=O)N[C@H](CC(C)C)C(N)=O [SEQ ID NO: 6, Acetyl-as-aib-lrkl-aib-krll-amide] (Ac-[dA][dS][Aib][dL][dR][dK][dL][Aib][dK][dR][dL][dL]-NH2) |  |  |
| 16 (≈ 5.95 µM) | 8 (≈ 2.98 µM) | 8 (≈ 2.98 µM) |  |  | CC(=O)N[C@@H](CC(C)C)C(=O)N[C@@H](CC(C)C)C(=O)N[C@@H](CCCNC(=N)N)C(=O)N[C@@H](CCCCN)C(=O)NC(C)(C)C(=O)N[C@@H](CC(C)C)C(=O)N[C@@H](CCCNC(=N)N)C(=O)N[C@@H](CCCCN)C(=O)N[C@@H](CC(C)C)C(=O)NC(C)(C)C(=O)N[C@@H](CO)C(=O)N[C@@H](C)C(=O)N[C@@H](CO)C(=O)NC(C)(C)C(=O)N[C@@H](CC(C)C)C(=O)N[C@@H](CCCNC(=N)N)C(=O)N[C@@H](CCCCN)C(=O)N[C@@H](CC(C)C)C(=O)NC(C)(C)C(=O)N[C@@H](CCCCN)C(=O)N[C@@H](CCCNC(=N)N)C(=O)N[C@@H](CC(C)C)C(=O)N[C@@H](CC(C)C)C(N)=O [SEQ ID NO: 7, Acetyl-LLRK-aib-LRKL-aib-SAS-aib-LRKL-aib-KRLL-CONH2] (Ac-LLRK[Aib]LRKL[Aib]SAS[Aib]LRKL[Aib]KRLL-NH2) |  |  |
| 64 (≈ 31.4 µM) | 16 (≈ 7.86 µM) | 8 (≈ 3.93 µM) |  |  | CC(=O)N[C@@H](CC(C)C)C(=O)N[C@@H](CCCNC(=N)N)C(=O)N[C@H](C(=O)N[C@@H](CCCNC(=N)N)C(=O)N[C@@H](CS)C(=O)N[C@@H](C)C(=O)N[C@@H](CO)C(=O)NC(C)(C)C(=O)N[C@@H](CC(C)C)C(=O)N[C@@H](CCCNC(=N)N)C(=O)N[C@@H](CCCCN)C(=O)N[C@@H](CC(C)C)C(=O)NC(C)(C)C(=O)N[C@@H](CCCCN)C(=O)N[C@@H](CCCNC(=N)N)C(=O)N[C@@H](CC(C)C)C(=O)N[C@@H](CC(C)C)C(N)=O)C(C)C [SEQ ID NO: 8, Acetyl-LRVRCAS-aib-LRKL-aib-KRLL-CONH2] (Ac-LRVRCAS[Aib]LRKL[Aib]KRLL-NH2) |  |  |
| 8 (≈ 3.96 µM) | 4 (≈ 1.98 µM) | 4 (≈ 1.98 µM) |  |  | CC(=O)N[C@@H](CC(C)C)C(=O)N[C@@H](CCCNC(=N)N)C(=O)N[C@H](C(=O)N[C@@H](CCCNC(=N)N)C(=O)N[C@@H](CC(C)C)C(=O)N[C@@H](C)C(=O)N[C@@H](CO)C(=O)NC(C)(C)C(=O)N[C@@H](CC(C)C)C(=O)N[C@@H](CCCCN)C(=O)N[C@@H](CCCCN)C(=O)N[C@@H](CC(C)C)C(=O)NC(C)(C)C(=O)N[C@@H](CCCCN)C(=O)N[C@@H](CCCNC(=N)N)C(=O)N[C@@H](CC(C)C)C(=O)N[C@@H](CC(C)C)C(N)=O)C(C)C [SEQ ID NO: 9, Acetyl-LRVRLAS-aib-LKKL-aib-KRLL-Amide] (Ac-LRVRLAS[Aib]LKKL[Aib]KRLL-NH2) |  |  |
|  |  | 4 (≈ 1.95 µM) | 8 (≈ 3.91 µM) | 16 (≈ 7.82 µM) | CC(=O)N[C@H](CC(C)C)C(=O)N[C@H](CC(C)C)C(=O)N[C@H](CCCNC(=N)N)C(=O)N[C@H](CCCCN)C(=O)NC(C)(C)C(=O)N[C@H](CC(C)C)C(=O)N[C@H](CCCCN)C(=O)N[C@H](CCCNC(=N)N)C(=O)N[C@H](CC(C)C)C(=O)NC(C)(C)C(=O)N[C@H](CO)C(=O)N[C@H](C)C(=O)N[C@H](CC(C)C)C(=O)N[C@H](CCCNC(=N)N)C(=O)N[C@@H](C(=O)N[C@H](CCCNC(=N)N)C(=O)N[C@H](CC(C)C)C(N)=O)C(C)C [SEQ ID NO: 11, Acetyl-llrk-aib-lkrl-aib-salrvrl-amide] (Ac-[dL][dL][dR][dK][Aib][dL][dK][dR][dL][Aib][dS][dA][dL][dR][dV][dR][dL]-NH2) |  |  |
| 16 (≈ 4.55 µM) | 64 (≈ 18.2 µM) | 4 (≈ 1.14 µM) |  |  | CC(=O)N[C@@H](CC(C)C)C(=O)N[C@@H](CCCNC(=N)N)C(=O)N[C@H](C(=O)N[C@@H](CCCNC(=N)N)C(=O)N[C@@H](CC(C)C)C(=O)N[C@@H](C)C(=O)N[C@@H](CO)C(=O)N[C@@H](Cc1c[nH]cn1)C(=O)N[C@@H](CC(C)C)C(=O)N[C@@H](CCCNC(=N)N)C(=O)N[C@@H](CCCCN)C(=O)N[C@@H](CC(C)C)C(=O)N[C@@H](CCCNC(=N)N)C(=O)N[C@@H](CCCCN)C(=O)N[C@@H](CCCNC(=N)N)C(=O)N[C@@H](CC(C)C)C(=O)N[C@@H](CC(C)C)C(=O)N[C@@H](C)C(=O)N[C@@H](CO)C(=O)NC(C)(C)C(=O)N[C@@H](CC(C)C)C(=O)N[C@@H](CCCNC(=N)N)C(=O)N[C@@H](CCCCN)C(=O)N[C@@H](CC(C)C)C(=O)NC(C)(C)C(=O)N[C@@H](CCCCN)C(=O)N[C@@H](CCCNC(=N)N)C(=O)N[C@@H](CC(C)C)C(=O)N[C@@H](CC(C)C)C(N)=O)C(C)C [SEQ ID NO: 12, Acetyl-LRVRLASHLRKLRKRLLAS-aib-LRKL-aib-KRLL-CONH2] (Ac-LRVRLASHLRKLRKRLLAS[Aib]LRKL[Aib]KRLL-NH2) |  |  |
|  |  |  |  |  | SAAP-148 | 12.8 | 1.6 |
